From patent US20250214977A1, “STAT6 INHIBITORS AND USES THEREOF” (Kymera Therapeutics, Inc., priority 2024, published 2025)

Each molecule was assayed on Phosphorylation of STAT6 in human PBMC (CD19+ B cells) (assay: Phosphorylated STAT6 (pSTAT6) flow cytometry assay in human PBMC, IL-4 stimulated). Settings: compound 1 hour, 1 ng/ml IL-4 for 15 minutes, read-out: STAT6 IL4 pSTAT6 assay in PBMC: Average IC50.
Assay type: cell-based
Method: Example 2. Phosphorylated STAT6 (pSTAT6) Flow Cytometry Assay in Human PBMC
Phosphorylation of STAT6 in human PBMC was quantitatively measured using flow cytometry technology. Human PBMC were seeded in 96-well plates with a density of 0.3 to 0.5 million cells per well in 100 μl fresh media. Compounds were then added to the assay plates with a final top concentration of up to 30 μM in a 1:3 dilution series with total of 9 doses. The assay plates were incubated for 1 hour at 37° C. under 5% CO2. The cells were then stimulated with 1 ng/ml of IL-4 (R&D Systems, Cat #6507-IL) for 15 minutes, followed by fixation for 30 minutes at 4° C. Cells were spun down at 350 g for 5 minutes. The supernatant was removed and cells were washed once with FACS buffer. Cells were permeabilized with 90% MeOH/H2O for 30 minutes at 4° C., followed by one wash with FACS buffer. Non-specific binding were blocked with human Fc for 1 hour at 4 C, followed by one wash with FACS buffer. AF488 conjugated pSTAT6 antibody (BD Biosciences, Cat #612600, 1:100 dilution) and PE conjugated CD19 antibody (BD Biosciences, Cat #341103, 1:50 dilution) diluted in 100 μl FACS buffer was added to each well with overnight incubation at 4° C. Cells were then washed once with FACS buffer and resuspended in 200 μl of FACS buffer for flow cytometry to quantify pSTAT6 in CD19+ B cells. The data was analyzed by GraphPad Prism and the dose dependent pSTAT6 inhibition was fit using the four-parameter inhibitor vs. response nonlinear regression.

SMILES	IC50
CCC[C@@H](C(=O)N1CCC=C(c2ccc3cc(C(=O)N(C)C)[nH]c3c2)C1)N1Cc2ccccc2C1=O [Example I-96]	10 to 100 µM
CC(=O)N1Cc2ccccc2CC1C(=O)N1CCC=C(c2ccc3oc(C(=O)N(C)C)cc3c2)C1 (stereo not drawn) [Example I-232]	> 100 µM
Cc1nc(-c2ccccc2F)c(C(=O)N2CCC=C(c3ccc4cc(C(=O)N(C)C)[nH]c4c3)C2)o1 [Example I-89]	> 100 µM
CN(C)C(=O)c1cc2ccc(C3=CCCN(C(=O)c4c(F)cccc4C(=O)O)C3)cc2[nH]1 [Example I-61]	> 100 µM
CN(C)C(=O)c1cc2cc(C3=CCCN(C(=O)CCc4c[nH]c5ccccc45)C3)ccc2o1 [Example I-300]	> 100 µM
CN(C)C(=O)c1cc2ccc(C3=CCCN(C(=O)C4(O)CC4)C3)cc2[nH]1 [Example I-27]	> 100 µM
CN(C)C(=O)c1cc2cc(C3=CCCN(C(=O)Cc4ccccn4)C3)ccc2o1 [Example I-263]	> 100 µM
CN(C)C(=O)c1cc2cc(C3=CCCN(C(=O)CCn4cnc5ccccc54)C3)ccc2o1 [Example I-265]	> 100 µM
CN(C)C(=O)c1cc2ccc(C3=CCCN(C(=O)C4CN(Cc5ccccc5)CCO4)C3)cc2[nH]1 (stereo not drawn) [Example I-100]	10 to 100 µM
CN(C)C(=O)c1cc2cc(C3=CCCN(C(=O)Cc4cncnc4)C3)ccc2o1 [Example I-293]	> 100 µM
CCCN(C)C(=O)c1cc2cc(C3=CCCN(C(=O)CCn4ccnn4)C3)ccc2o1 [Example I-235]	> 100 µM
CN(C)C(=O)c1cc2ccc(C3=CCCN(C(=O)C4CCN(S(C)(=O)=O)CC4)C3)cc2[nH]1 [Example I-140]	> 100 µM
CN(C)C(=O)c1cc2ccc(C3=CCCN(C(=O)C4(O)CCCC4)C3)cc2[nH]1 [Example I-32]	10 to 100 µM
CN(C)C(=O)c1cc2ccc(C3=CCCN(C(=O)CN(C)S(=O)(=O)c4ccccc4)C3)cc2[nH]1 [Example I-75]	10 to 100 µM
CN(C)C(=O)c1cc2cc(C3=CCCN(C(=O)CCc4cncnc4)C3)ccc2o1 [Example I-272]	> 100 µM
COC(=O)CCC#Cc1cc(C2=CCCN(C(=O)C3Cc4ccccc4CN3C=O)C2)cc2cc(C(=O)N(C)C)oc12 (stereo not drawn) [Example I-184]	10 to 100 µM
CN(C)C(=O)c1cc2cc(C3=CCCN(C(=O)CCn4ccnn4)C3)ncc2[nH]1 [Example I-224]	10 to 100 µM
CN(C)C(=O)c1cc2cc(C3=CCCN(C(=O)CCc4cn5cccnc5n4)C3)ccc2o1 [Example I-281]	> 100 µM
CN(C)C(=O)c1cc2ccc(C3=CCCN(C(=O)C(O)Cc4ccccc4)C3)cc2[nH]1 (stereo not drawn) [Example I-51]	10 to 100 µM
CN(C)C(=O)c1cc2ccc(C3=CCCN(C(=O)C4ON=C(c5ccccc5)O4)C3)cc2[nH]1 (stereo not drawn) [Example I-71]	10 to 100 µM
CN(C)C(=O)c1cc2cc(C3=CCCN(C(=O)CCc4cccs4)C3)ccc2o1 [Example I-299]	> 100 µM
CN(C)C(=O)c1cc2ccc(C3=CCCN(C(=O)[C@H]4Cc5ccccc5CN4)C3)cc2[nH]1 [Example I-59]	1 to 10 µM

SMILES	IC50
CN(C)C(=O)c1cc2ccc(C3=CCCN(C(=O)C4COCC(=O)N4Cc4ccccc4)C3)cc2[nH]1 (stereo not drawn) [Example I-93]	10 to 100 µM
CC(Oc1ccccn1)C(=O)N1CCC=C(c2ccc3cc(C(=O)N(C)C)[nH]c3c2)C1 (stereo not drawn) [Example I-54]	10 to 100 µM
CN(C)C(=O)c1cc2cc(C3=CCCN(C(=O)C4Cc5ccccc5CN4C)C3)ccc2o1 (stereo not drawn) [Example I-285]	> 100 µM
CN(C)C(=O)c1nc2ccc(C3=CCCN(C(=O)C4Cc5ccccc5CN4C=O)C3)cc2[nH]1 (stereo not drawn) [Example I-198]	> 100 µM
CN(C)C(=O)c1cc2cc(C3=CCCN(C(=O)Cc4ccc5nccnc5c4)C3)ccc2o1 [Example I-297]	> 100 µM
CN(C)C(=O)c1cc2ccc(C3=CCCN(C(=O)CCc4nnco4)C3)cc2[nH]1 [Example I-18]	> 100 µM
CN(C)C(=O)c1cc2ccc(C3=CCCN(C(=O)c4cnn(C)c4C(F)(F)F)C3)cc2[nH]1 [Example I-62]	10 to 100 µM
CN(C)C(=O)c1cc2ccc(C3=CCCN(C(=O)c4snnc4C4CC4)C3)cc2[nH]1 [Example I-143]	> 100 µM
CN(C)C(=O)c1cc2cc(C3=CCCN(C(=O)C4Cc5c(cccc5-n5cccn5)CN4C=O)C3)ccc2o1 (stereo not drawn) [Example I-172]	> 100 µM
O=C(CCn1ccnn1)N1CCC=C(c2ccc3cc(C(=O)N4CCCC4)[nH]c3c2)C1 [Example I-124]	> 100 µM
CN(C)C(=O)c1cc2ccc(C3=CCCN(C(=O)CCc4ccno4)C3)cc2[nH]1 [Example I-19]	> 100 µM
CN(C)C(=O)c1cc2ccc(C3=CCCN(C(=O)CC(C)(O)C(F)(F)F)C3)cc2[nH]1 (stereo not drawn) [Example I-46]	10 to 100 µM
C[C@@H]1CCCCN1C(=O)c1cc2ccc(C3=CCCN(C(=O)CCn4ccnn4)C3)cc2[nH]1 (single isomer, unassigned) [Example I-130]	> 100 µM
CN(C)C(=O)c1cc2ccc(C3=CCCN(C(=O)C4(c5ccc(Cl)cc5)CC(O)C4)C3)cc2[nH]1 (stereo not drawn) [Example I-78]	> 100 µM
CN(C)C(=O)c1cc2ccc(C3=CCCN(C(=O)CCc4cccc(C#N)c4)C3)cc2[nH]1 [Example I-63]	> 100 µM
COC(=O)c1cnn(-c2cc(C3=CCCN(C(=O)CCn4ccnn4)C3)cc3cc(C(=O)N(C)C)oc23)c1 [Example I-186]	> 100 µM
COC(=O)[C@H]1CC[C@H](c2ccc3oc(C(=O)N(C)C)cc3c2)CN1C(=O)CCn1ccnn1 (single isomer, unassigned) [Example I-152]	> 100 µM
CN(C)C(=O)c1cc2ccc(C3=CCCN(C(=O)c4nonc4C4CC4)C3)cc2[nH]1 [Example I-44]	10 to 100 µM
CN(C)C(=O)c1cc2ccc(C3=CCCN(C(=O)OCn4ccnn4)C3)cc2[nH]1 [Example I-120]	> 100 µM
CC(=O)N1Cc2ccccc2CC1C(=O)N1CCC=C(c2ccc3oc(C(=O)N(C)C)cc3c2)C1 (stereo not drawn) [Example I-182]	> 100 µM
CN(C)C(=O)c1nc2cc(C3=CCCN(C(=O)CCc4ccccn4)C3)ccc2[nH]1 [Example I-199]	> 100 µM
O=C(NCCO)c1cc2cc(C3=CCCN(C(=O)CCn4ccnn4)C3)ccc2o1 [Example I-307]	> 100 µM

SMILES	IC50
CN(C)C(=O)c1cc2ccc(C3=CCCN(C(=O)C4CC(=O)N(Cc5ccccc5)C4)C3)cc2[nH]1 (stereo not drawn) [Example I-88]	10 to 100 µM
CN(C)C(=O)c1cc2ccc(C3=CCCN(C(=O)CCc4ccn(C)n4)C3)cc2[nH]1 [Example I-10]	> 100 µM
C[C@H]1CCCCN1C(=O)c1cc2ccc(C3=CCCN(C(=O)CCn4ccnn4)C3)cc2[nH]1 (single isomer, unassigned) [Example I-129]	> 100 µM
CN(C)C(=O)c1cc2cc(C3=CCCN(C(=O)CCn4ccnn4)C3)cc(-c3ccc(O)cc3)c2o1 [Example I-205]	0.1 to 1 µM
CN(C)C(=O)c1cc2cc(C3CCC(CO)N(C(=O)CCn4ccnn4)C3)ccc2o1 (stereo not drawn) [Example I-155]	> 100 µM
CN(C)C(=O)c1cc2cc(C3=CCCN(C(=O)CCc4ccncc4)C3)ccc2o1 [Example I-313]	> 100 µM
CN(C)C(=O)c1cc2cc(C3=CCCN(C(=O)Cc4nc5ccccc5s4)C3)ccc2o1 [Example I-221]	> 100 µM
CC(=O)NC(C(=O)N1CCC=C(c2ccc3cc(C(=O)N(C)C)[nH]c3c2)C1)c1cccc(Cl)c1 (stereo not drawn) [Example I-77]	10 to 100 µM
CN(C)C(=O)c1cc2ccc(C3=CCCN(C(=O)c4ccc5c(c4)OCC(=O)N5)C3)cc2[nH]1 [Example I-132]	> 100 µM
CN(C)C(=O)c1cc2cc(C3=CCCN(C(=O)CCc4nncs4)C3)ccc2o1 [Example I-147]	> 100 µM
CN(C)C(=O)c1cc2ccc(C3=CCCN(C(=O)COc4ccc(C(=O)O)cc4)C3)cc2[nH]1 [Example I-67]	10 to 100 µM
CN(C)C(=O)c1cc2cc(C3=CCCN(C(=O)CCc4ncccn4)C3)ccc2o1 [Example I-231]	> 100 µM
COc1ccc(CC(=O)N2CCC=C(c3ccc4oc(C(=O)N(C)C)cc4c3)C2)cc1C#N [Example I-256]	> 100 µM
CN(C)C(=O)c1cc2cc(C3=CCCN(C(=O)Cn4cncn4)C3)ccc2o1 [Example I-315]	> 100 µM
CN(C)C(=O)c1cn2cc(C3=CCCN(C(=O)CCn4ccnn4)C3)ccc2n1 [Example I-241]	> 100 µM
O=C(CCn1ccnn1)N1CCC=C(c2ccc3cc(-c4ccccn4)[nH]c3c2)C1 [Example I-119]	> 100 µM
CN(C)C(=O)c1cc2cc(C3=CCCN(C(=O)Cc4ccccc4)C3)ccc2o1 [Example I-283]	> 100 µM
CN(C)C(=O)c1cc2ccc(C3=CCCN(C(=O)c4n[nH]cc4I)C3)cc2[nH]1 [Example I-33]	10 to 100 µM
CN(C)C(=O)c1cc2ccc(C3=CCCN(C(=O)CCn4ncc5cc(Cl)ncc54)C3)cc2[nH]1 [Example I-80]	> 100 µM
CN(C)C(=O)c1cc2cc(C3=CCCN(C(=O)C4Cc5ccccc5CN4C=O)C3)ccc2[nH]1 (stereo not drawn) [Example I-201]	> 100 µM
CN(C)C(=O)c1cc2ccc(C3=CCCN(C(=O)CCn4ccnn4)C3)cn2n1 [Example I-298]	> 100 µM
COC(=O)c1ccc(CCC(=O)N2CCC=C(c3ccc4cc(C(=O)N(C)C)[nH]c4c3)C2)[nH]1 [Example I-68]	10 to 100 µM
